In US20040248953A1, “3-Arylsulfanyl and 3-heteroarylsulfanyl substituted benzo[b]thiophenes as therapeutic agents” (priority 2003, published 2004) one finds IC50 data, which are given here for 27 compounds.

T1 sequence (P48736 whole entry, species assumed): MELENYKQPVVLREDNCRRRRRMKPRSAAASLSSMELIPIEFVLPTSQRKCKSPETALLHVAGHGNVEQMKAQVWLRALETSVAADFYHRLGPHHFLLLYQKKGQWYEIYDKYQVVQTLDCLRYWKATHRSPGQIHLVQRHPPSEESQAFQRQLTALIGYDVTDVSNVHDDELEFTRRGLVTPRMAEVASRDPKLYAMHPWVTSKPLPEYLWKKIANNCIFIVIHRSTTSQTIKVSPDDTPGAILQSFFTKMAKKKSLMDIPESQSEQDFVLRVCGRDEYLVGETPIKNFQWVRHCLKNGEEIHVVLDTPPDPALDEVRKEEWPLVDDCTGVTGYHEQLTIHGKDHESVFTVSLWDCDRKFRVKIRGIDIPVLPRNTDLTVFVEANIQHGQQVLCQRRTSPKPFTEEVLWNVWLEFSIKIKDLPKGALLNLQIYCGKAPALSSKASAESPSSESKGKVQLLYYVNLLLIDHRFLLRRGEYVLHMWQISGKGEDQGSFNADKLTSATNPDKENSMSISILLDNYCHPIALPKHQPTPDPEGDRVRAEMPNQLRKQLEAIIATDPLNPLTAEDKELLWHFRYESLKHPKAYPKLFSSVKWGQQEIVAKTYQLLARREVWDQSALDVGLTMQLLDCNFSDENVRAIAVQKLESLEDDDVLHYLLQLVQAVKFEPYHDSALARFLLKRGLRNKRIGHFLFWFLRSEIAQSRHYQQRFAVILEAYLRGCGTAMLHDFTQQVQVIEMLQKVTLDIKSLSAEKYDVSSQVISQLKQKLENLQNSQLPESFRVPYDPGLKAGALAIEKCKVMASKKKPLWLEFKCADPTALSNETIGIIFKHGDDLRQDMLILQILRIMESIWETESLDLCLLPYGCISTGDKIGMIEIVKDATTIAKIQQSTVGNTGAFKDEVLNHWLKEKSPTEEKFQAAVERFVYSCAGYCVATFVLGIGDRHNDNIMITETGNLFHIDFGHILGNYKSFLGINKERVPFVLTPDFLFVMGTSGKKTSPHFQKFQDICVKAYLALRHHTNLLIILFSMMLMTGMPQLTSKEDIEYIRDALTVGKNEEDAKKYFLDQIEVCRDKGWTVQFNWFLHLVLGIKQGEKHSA
T1 sequence (Q8WYR1 whole entry partner, species assumed): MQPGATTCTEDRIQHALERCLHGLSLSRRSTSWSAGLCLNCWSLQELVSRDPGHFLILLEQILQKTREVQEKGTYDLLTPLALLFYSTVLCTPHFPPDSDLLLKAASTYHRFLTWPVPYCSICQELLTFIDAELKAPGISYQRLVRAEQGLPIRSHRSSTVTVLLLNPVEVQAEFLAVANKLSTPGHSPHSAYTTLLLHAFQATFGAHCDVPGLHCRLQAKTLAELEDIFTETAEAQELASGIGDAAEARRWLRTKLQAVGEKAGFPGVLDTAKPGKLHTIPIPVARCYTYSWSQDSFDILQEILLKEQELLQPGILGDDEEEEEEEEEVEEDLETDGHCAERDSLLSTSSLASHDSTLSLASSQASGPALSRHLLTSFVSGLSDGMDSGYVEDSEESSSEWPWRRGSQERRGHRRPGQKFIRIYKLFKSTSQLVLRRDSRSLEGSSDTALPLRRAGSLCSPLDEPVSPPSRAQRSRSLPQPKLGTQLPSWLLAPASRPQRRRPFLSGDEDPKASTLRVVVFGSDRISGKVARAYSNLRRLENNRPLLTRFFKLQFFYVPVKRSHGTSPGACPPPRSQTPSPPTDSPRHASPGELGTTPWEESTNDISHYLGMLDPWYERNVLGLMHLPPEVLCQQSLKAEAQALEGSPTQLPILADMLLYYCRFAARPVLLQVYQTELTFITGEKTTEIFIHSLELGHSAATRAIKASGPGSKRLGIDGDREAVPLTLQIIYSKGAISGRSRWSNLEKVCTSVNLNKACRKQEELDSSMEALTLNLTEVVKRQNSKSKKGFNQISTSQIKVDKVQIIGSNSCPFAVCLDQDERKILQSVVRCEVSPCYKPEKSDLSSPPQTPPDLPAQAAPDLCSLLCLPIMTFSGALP

This assay concerns the target T1, PI3Kγ (Homo sapiens, UniProt P48736).
T1 construct: HA; made in house; host or cells: Spodoptera frugiperda (Sf9) cells, baculovirus coinfection
Put plainly: PI3Kγ in vitro kinase assay (32P-ATP, PIP2 lipid micelles, filter plate). It is filed as biochemical. To be noted: purified recombinant p101/p110γ protein with G protein β1/γ2 subunits; 20 μM ATP; 25 μM PIP2; 20 minutes at room temperature. As to the method: Spodtera frugiperda cells, grown in ESF921 media, were coinfected with baculovirus expressing a glu-tagged p101 and baculovirus expressing an HA-tagged p110γ, at a 3:1 ratio of p101 baculovirus to p110γ baculovirus. Sf9 cells were grown to 1×10^7 total cells/mL in 10 L bioreactors and harvested 48-72 hours post infection. Samples of infected cells were then tested for expression of p101/p110γ PI3 kinase by immunoprecipitation and Western Blot analysis methods (see below). To purify PI3Kγ, 4 volumes of room temperature hypotonic lysis buffer (1 mM MgCl2, 1 mM DTT, 5 mM EGTA, 1 mM Pefabloc, 0.5 μM aprotinin, 5 μM leupeptin, 2 μM pepstatin, 5 μM E64, pH 8) per gram of cell paste, was poured onto frozen cell pellets with stirring, then lysed in a nitrogen “bomb” at 400 psi (599HC […], Parr Instrument Co, Moline, Ill.). NaCl was added to 150 mM, and sodium cholate was added to 1% and mixed for another 45 minutes. The lysates were clarified by centrifugation for 25 minutes at 14,000 rpm. The lysates were then loaded over anti-glu-linked Protein-G Sepaharose beads (Covance Research Products, Richmond, Calif.) using 20 mL resin/50 g cell paste. The column was washed with 15 volumes of wash buffer (1 mM DTT, 0.2 mM EGTA, 1 mM Pefabloc, 0.5 μM aprotinin, 5 μM leupeptin, 2 μM pepstatin, 5 μM E64, 150 mM NaCl, 1% sodium cholate, pH 8). PI3Kγ was eluted with 6 column volumes of wash buffer that contain 100 μg/mL of a peptide that competes for binding of the glu tag. The column fractions with the eluted protein (determined by taking OD280 readings) were collected and dialyzed in 0.2 mM EGTA, 1 mM DTT, 1 mM Pefabloc, 5 μM leupeptin, 0.5% sodium cholate, 150 mM NaCl, and 50% glycerol, pH 8. The fractions were stored at -80° C. until further use. Spodtera frugiperda cells were coinfected with baculovirus expressing a glu-tagged G protein β1 and baculovirus expressing a […], at a 1:1 ratio of glu-tagged G protein β1 baculovirus to G protein β2 baculovirus. Sf9 cells are grown in 10 L bioreactors and harvested 48-72 hours post infection. Samples of infected cells were tested for G protein β1/β2 expression by Western Blot analysis, as described below. Cell lysates were homogenized and loaded onto a column of glu-tagged beads as in Biological Example 1 and competed off the column with a glu peptide and processed as described in Biological Example 1. The inhibitory properties of the compounds in Table 1 were assayed in an in vitro PI3K assay. In a 96-well polypropylene plate, each well was spotted with […] of 50 times the desired final concentration of compound in DMSO. Purified recombinant p101/p110γ protein (0.03 μg; 2.7 nM) and G protein β1/γ2 subunits (0.09 μg; 57.7 nM) for each reaction was combined in the assay buffer (30 mM HEPES, 100 mM NaCl, 1 mM EGTA, and 1 mM DTT). ATP and [γ-^32P-ATP] (0.09 μCi) were added to this mixture so that the final ATP concentration in the reaction was 20 μM. Lipid micelles were formed by sonicating phosphatidylinositol4,5-diphosphate (PIP2), phosphatidylethanolamine (PE), and Na-cholate in the assay buffer for 10 minutes, adding MgCl2 and incubating on ice for 20 minutes, for final concentrations of 25 μM PIP2, 300 μM PE, 0.02% Na-cholate, and 10 mM MgCl2 in the reaction. The reactions were started by adding equal volumes lipid and enzyme mixture in a total volume of 50 μL, allowed to run for 20 minutes at room temperature, and stopped with 100 μL 75 mM H3PO4. The lipid product was transferred to a glass fiber filter plate and washed with 75 mM H3PO4 several times. The presence of radioactive lipid product (PIP3) was measured by adding Wallac Optiphase mix to each well and counting in a Wallac 1450 Trilux plate reader (PerkinElmer Life Sciences Inc., Boston, Mass. 02118). The IC50 for each compound tested is reported in μM in Table 1: […]
Consider `COc1cccc(Sc2c(C(=O)Nc3nnn[nH]3)sc3cc(OC)c(OC)cc23)c1` [Example 51, 5,6-Dimethoxy-3-(3-methoxy-phenylsulfanyl)-benzo[b]thiophene-2-carboxylic acid(1H-tetrazol-5-yl)-amide], for which the IC50 (commonly the midpoint of a concentration-inhibition curve) was 438 nM.

`COc1cc2sc(C(=O)Nc3nnn[nH]3)c(Sc3ccc(O)cc3)c2cc1OC` [Example 28, 3-(4-hydroxy-phenylsulfanyl)-5,6-dimethoxy-benzo[b]thiophene-2-carboxylic acid(1H-tetrazol-5-yl)-amide]: the half-maximal inhibitory concentration (IC50) is 1840 nM.

`COc1cc2sc(C(=O)Nc3nnn[nH]3)c(Sc3cccc(Cl)c3)c2cc1C` [Example 45, 3-(3-Chloro-phenylsulfanyl)-6-methoxy-5-methyl-benzo[b]thiophene-2-carboxylic acid(1H-tetrazol-5-yl)-amide]: the half-inhibitory concentration (IC50) was determined as 465 nM.

As for “5-Ethoxy-3-phenethylsulfanyl-benzo[b]thiophene-2-carboxylic acid(1H-tetrazol-5-yl)-amide [Example 52]”, the IC50 was 2850 nM.

With `COc1cc2c(Sc3ccc(C(C)C)cc3)c(C(=O)Nc3nnn[nH]3)sc2cc1C` [Example 35, 3-(4-Isopropyl-phenylsulfanyl)-5-methoxy-6-methyl-benzo[b]thiophene-2-carboxylic acid(1H-tetrazol-5-yl)-amide], the IC50 amounted to 370 nM.

Regarding `COc1ccc2sc(C(=O)Nc3nnn[nH]3)c(Sc3ccc4c(c3)OCO4)c2c1` [Example 27, 3-(benzo[1,3]dioxol-5-ylsulfanyl)-5-methoxy-benzo[b]thiophene-2-carboxylic acid(1H-tetrazol-5-yl)-amide], the IC50 worked out at 1690 nM.

Regarding `COc1cc2sc(C(=O)Nc3nnn[nH]3)c(Sc3cccc(C(F)(F)F)c3)c2cc1OC` [Example 50, 5,6-Dimethoxy-3-(3-trifluoromethyl-phenylsulfanyl)-benzo[b]thiophene-2-carboxylic acid(1H-tetrazol-5-yl)-amide], the half-inhibitory concentration (IC50) amounted to 3380 nM.

Take `COc1cc2c(Sc3ccc(N(C)C)cc3)c(C(=O)Nc3nnn[nH]3)sc2cc1C` [Example 53, 3-(4-Dimethylamino-phenylsulfanyl)-5-methoxy-6-methyl-benzo[b]thiophene-2-carboxylic acid(1H-tetrazol-5-yl)-amide]: the 50% inhibitory concentration (IC50) is 390 nM.

Turning to `COc1ccc2sc(C(=O)Nc3nnn[nH]3)c(SCCc3ccccc3)c2c1` [Example 26, 5-methoxy-3-phenethylsulfanyl-benzo[b]thiophene-2-carboxylic acid(1H-tetrazol-5-yl)-amide], the IC50 was 1600 nM.

`COCc1cc2sc(C(=O)Nc3nnn[nH]3)c(Sc3ccccc3)c2cc1OC` [Example 65, 5-Methoxy-6-methoxymethyl-3-phenylsulfanyl-benzo[b]thiophene-2-carboxylic acid(1H-tetrazol-5-yl)-amide]: the IC50 was determined as 315 nM.

For `COc1ccc2sc(C(=O)Nc3nnn[nH]3)c(Sc3ccccc3C)c2c1` [Example 18, 5-methoxy-3-o-tolysulfanyl-benzo[b]thiophene-2-carboxylic acid (1H-tetrazol-5-yl)-amide], the IC50 was found to be 470 nM.

`CCc1ccccc1Sc1c(C(=O)Nc2nnn[nH]2)sc2cc(OC)c(OC)cc12` [Example 6, 3-(2-ethyl-phenylsulfanyl)-5,6-dimethoxy-benzo[b]thiophene-2-carboxylic acid(1H-tetrazol-5-yl)-amide]: the IC50 stood at 1170 nM.

Consider `COc1ccc2sc(C(=O)Nc3nnn[nH]3)c(Sc3ccccc3Br)c2c1` [Example 20, 3-(2-bromo-phenylsulfanyl)-5-methoxy-benzo[b]thiophene-2-carboxylic acid(1H-tetrazol-5-yl)-amide], for which the half-maximal inhibitory concentration (IC50) came out at 2920 nM.

For the compound `COc1cc2sc(C(=O)Nc3nnn[nH]3)c(Sc3ccc(Cl)cc3)c2cc1OC` [Example 8, 3-(4-chloro-phenylsulfanyl)-5,6-dimethoxy-benzo[b]thiophene-2-carboxylic acid(1H-tetrazol-5-yl)-amide], the concentration for half-maximal inhibition (IC50) was determined as 3720 nM.

On to `COc1ccc2sc(C(=O)Nc3nnn[nH]3)c(Sc3ccc(O)cc3)c2c1` [Example 4, 3-(4-hydroxy-phenylsulfanyl)-5-methoxy-benzo[b]thiophene-2-carboxylic acid(1H-tetrazol-5-yl)-amide], for which the concentration for half-maximal inhibition (IC50) amounted to 2770 nM.

Regarding `COc1cc2c(Sc3ccc(C(=O)O)cc3)c(C(=O)Nc3nnn[nH]3)sc2cc1C` [Example 55, 4-[5-Methoxy-6-methyl-2-(1H-tetrazol-5-ylcarbamoyl)-benzo[b]thiophen-3-ylsulfanyl]-benzoic acid], the IC50 was 265 nM.

Turning to `COc1cc2c(Sc3ccc(CCC(=O)O)cc3)c(C(=O)Nc3nnn[nH]3)sc2cc1C` [Example 57, 3-{4-[5-Methoxy-6-methyl-2-(1H-tetrazol-5-ylcarbamoyl)-benzo[b]thiophen-3-ylsulfanyl]-phenyl}-propionic acid], the half-inhibitory concentration (IC50) came out at 575 nM.

As for `CCOc1ccc2sc(C(=O)Nc3nnn[nH]3)c(Sc3ccccc3)c2c1` [Example 3, 5-Ethoxy-3-phenylsulfanyl-benzo[b]thiophene-2-carboxylic acid (1H-tetrazol-5-yl)-amide], the IC50 was determined as 253 nM.

`COc1cc2sc(C(=O)Nc3nnn[nH]3)c(Sc3ccc(C(C)C)cc3)c2cc1C` [Example 47, 3-(4-Isopropyl-phenylsulfanyl)-6-methoxy-5-methyl-benzo[b]thiophene-2-carboxylic acid(1H-tetrazol-5-yl)-amide]: the IC50 is 3130 nM.

As for `COc1cc2c(Sc3ccccc3)c(C(=O)Nc3nnn[nH]3)sc2cc1C` [Example 2, 5-Methoxy-6-methyl-3-phenylsulfanyl-benzo[b]thiophene-2-carboxylic acid(1H-tetrazol-5-yl)-amide], the IC50 came out at 177 nM.

Consider “5,6-dimethoxy-3-phenethylsulfanyl-benzo[b]thiophene-2-carboxylic acid(1H-tetrazol-5-yl)-amide [Example 13]”, for which the IC50 was 522 nM.

Regarding `COc1cc2sc(C(=O)Nc3nnn[nH]3)c(Sc3ccccc3)c2cc1OC` [Example 1, 5,6-Dimethoxy-3-phenylsulfanyl-benzo[b]thiophene-2-carboxylic acid(1H-tetrazol-5-yl)-amide], the IC50 was determined as 60 nM.

As to `COc1cc2sc(C(=O)Nc3nn[nH]n3)c(SCc3ccc(C#N)cc3)c2cc1OC` [Example 66, 3-(4-Cyano-benzylsulfanyl)-5,6-dimethoxy-benzo[b]thiophene-2-carboxylic acid(2H-tetrazol-5-yl)-amide], the IC50 is 1170 nM.

Regarding `COc1ccc(OC)c(Sc2c(C(=O)Nc3nnn[nH]3)sc3ccc(OC)cc23)c1` [Example 24, 3-(2,5-dimethoxy-phenylsulfanyl)-5-methoxy-benzo[b]thiophene-2-carboxylic acid(1H-tetrazol-5-yl)-amide], the IC50 came to 1220 nM.

Consider `COc1cc2sc(C(=O)Nc3nnn[nH]3)c(SCc3ccc(C(=O)O)cc3)c2cc1C` [Example 60, 4-[6-Methoxy-5-methyl-2-(1H-tetrazol-5-ylcarbamoyl)-benzo[b]thiophen-3-ylsulfanylmethyl]-benzoic acid], for which the IC50 came to 495 nM.

Turning to `COc1cc2c(SCCc3ccccc3)c(C(=O)Nc3nnn[nH]3)sc2cc1C` [Example 54], the concentration for half-maximal inhibition (IC50) is 50 nM.

`COc1ccc2sc(C(=O)Nc3nnn[nH]3)c(Sc3ccc(Cl)cc3)c2c1` [Example 23, 3-(4-chloro-phenylsulfanyl)-5-methoxy-benzo[b]thiophene-2-carboxylic acid(1H-tetrazol-5-yl)-amide]: the half-maximal inhibitory concentration (IC50) came to 4930 nM.
